Patent US20250066370A1, “BICYCLIC TRIAZINE DERIVATIVES FOR THE TREATMENT OF CANCER” (DEUTSCHES KREBSFORSCHUNGSZENTRUM, priority 2022, published 2025)

Assays:
[1] = system: CAL-120, human breast adenocarcinoma cells; test: Proliferation assay CAL-120 (crystal violet); type: cell-based; settings: 96 h, CAL-120 parental cells, 4 days, median, read-out: Prolif-CAL-120, IC50 - [mol/l] (median)
Procedure: Human tumour cells were originally obtained from the American Type Culture Collection (ATCC), or from the Deutsche Sammlung von Mikroorganismen und Zellkulturen (DSMZ, German Collection of Microorganisms and Cell Cultures). Cultivated tumour cells (CAL-120, human breast adenocarcinoma cells, DSMZ ACC-459; MDA-MB-231, human breast cancer cells, ATCC HTB-26) were plated at a density of 4,000 cells/well in a 96-well multitier plate in 200 microL of their respective growth medium supplemented 10% fetal calf serum. After 24 hours, the cells of one plate (zero-point plate) were stained with crystal violet (see below), while the medium of the other plates was supplemented with the test substances in various concentrations (0 micromol/L, as well as in the range of 0.01-10 micromol/L; the final concentration of the solvent dimethyl sulfoxide was adjusted to 0.1%) using a Tecan HP D300 Digital Dispenser. The cells were incubated for 4 days in the presence of test substances. Cell proliferation was determined by staining the cells with crystal violet: the cells were fixed by adding 20 microL/measuring point of an 11% glutaric aldehyde solution for 15 minutes at room temperature. After three washing cycles of the fixed cells with water, the plates were dried at room temperature. The cells were stained by adding 100 microL/measuring point of a 0.1% crystal violet solution (pH 3.0). After three washing cycles of the stained cells with water, the plates were dried at room temperature. The dye was dissolved by adding 100 microL/measuring point of a 10% acetic acid solution. The extinction was determined by photometry at a wavelength of 595 nm. The change of cell number, in percent, was calculated by normalization of the measured values to the extinction values of the zero-point plate (=0%) and the extinction of the untreated (0 μM) cells (=100%). The IC50 values (inhibitory concentration at 50% of maximal effect) were determined by means of a 4 parameter fit.

[2] = system: BRCA1 mRNA expression in MDA-MB-231 cells; test: qRT-PCR assay: inhibition of BRCA1 mRNA expression in MDA-MB-231 cells; type: cell-based; settings: Homo sapiens, 24 h exposure, BRCA1 normalised to GAPDH, median, read-out: RTqPCR-MDA-MB-231, IC50 [mol/l], BRCA1 (median)
Procedure: 3. qRT-PCR Assay: BRCA1, ATR, MCL1 in MDA-MB-231, CAL-120
Tissue cultured human MDA-MB-231 human breast cancer cells were plated in 500 microL per well at 200,000 cells/well in a 24 well microtiter plate. After 24 h, the cells were exposed continuously for 24 h to test substances (substances were added with Tecan HP D300 Dispenser). RNA was prepared using Qiagen RNeasy MiniKit (#74106), RNA was quantified using a NanoDrop Equipment, and 600 nano grams of RNA was converted to cDNA using a SuperScript VILO kit (Thermofisher #11755050) followed by qPCR amplification. BRCA1 and ATR gene expression was measured by RT-qPCR and normalised to GAPDH housekeeping gene expression. qPCR primer sets have been purchased from Thermo Fisher Scientific/Applied Biosystems: BRCA1, #Hs 01556193; ATR. #Hs 00992123: GAPDH. #Hs 03929097.

[3] = molecular target: CDK12/CyclinK (Homo sapiens (Human), UniProt Q9NYV4); test: CDK12/CycK high ATP kinase assay (TR-FRET); type: biochemical; settings: for IC50: 2 mM ATP (high ATP), median, read-out: CDK12/CyclinK, 2 mM ATP (high ATP), IC50 - [mol/l] (median); for (IC50 CDK12 high ATP) to (Degradation DC50 CDK12) ratio: IC50 CDK12 at 2 mM ATP divided by CDK12 degradation DC50 (IF, CAL-120)
Sequence of CDK12/CyclinK (Q9NYV4 other isoform, or with tags, fused parts or gaps): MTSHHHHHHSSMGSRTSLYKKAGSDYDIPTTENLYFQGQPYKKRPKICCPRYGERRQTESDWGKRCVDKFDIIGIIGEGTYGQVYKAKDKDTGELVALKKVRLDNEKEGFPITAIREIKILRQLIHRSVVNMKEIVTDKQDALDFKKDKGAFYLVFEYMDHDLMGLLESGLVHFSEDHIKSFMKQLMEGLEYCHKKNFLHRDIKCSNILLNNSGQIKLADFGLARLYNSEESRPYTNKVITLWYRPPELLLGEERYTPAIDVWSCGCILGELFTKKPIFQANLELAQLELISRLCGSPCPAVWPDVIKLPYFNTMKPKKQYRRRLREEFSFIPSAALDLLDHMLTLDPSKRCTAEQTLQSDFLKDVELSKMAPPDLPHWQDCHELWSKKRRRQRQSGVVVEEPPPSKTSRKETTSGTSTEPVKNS
Sequence of CDK12/CyclinK (O75909 other isoform, or with tags, fused parts or gaps partner): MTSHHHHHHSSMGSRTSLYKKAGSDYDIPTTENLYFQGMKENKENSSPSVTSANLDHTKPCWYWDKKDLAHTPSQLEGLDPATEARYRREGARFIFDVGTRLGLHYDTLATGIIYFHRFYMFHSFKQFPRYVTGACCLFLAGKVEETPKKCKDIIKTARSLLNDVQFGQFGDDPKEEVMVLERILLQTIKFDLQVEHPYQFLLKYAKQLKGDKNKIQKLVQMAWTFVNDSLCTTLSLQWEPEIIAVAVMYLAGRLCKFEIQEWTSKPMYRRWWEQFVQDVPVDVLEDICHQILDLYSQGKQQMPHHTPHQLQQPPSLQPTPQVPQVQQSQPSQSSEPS
Procedure: In the context of the present invention, the term “IC50 CDK12 hATP” refers to the IC50 values obtained according to the assay described in this section (2.2) herein below, i.e. the IC50 values for the inhibition of CDK12 at high (2 mM) ATP.
CDK12/CycK-inhibitory activity of compounds of the present invention at 2 millimol/L adenosine-tri-phosphate (ATP) was quantified employing the TR-FRET (TR-FRET=Time Resolved Fluorescence Energy Transfer) based CDK12/CycK activity inhibition assay as described in the following paragraphs.
A complex of human recombinant CDK12 and human recombinant CycK (both N-terminally His-tagged, expression and purification as described above) was used as enzyme. As substrate for the kinase reaction biotinylated peptide biotin-Ahx-KFELLPTPPLSPSRRSGL (C-terminus in amid form) was used which can be purchased e.g. form the company Biosyntan (Berlin-Buch, Germany).
For the assay 50 nanoL of a 100 fold concentrated solution of the test compound in DMSO was pipetted into either a black low volume 384 well microtiter plate or a black 1536 well microtiter plate (both Greiner Bio-One, Frickenhausen, Germany), 2 microL of a solution of CDK12/CycK in aqueous assay buffer [25 millimol/L HEPES pH 7.5, 20 millimol/L MgCl2, 5 millimol/L β-glycerophosphate, 2 millimol/L EGTA, 1.0 millimol/L dithiothreitol, 0.01% (v/v) Nonidet-P40 (Sigma), 0.01% (w/v) bovine serum albumin] were added and the mixture was incubated for 15 min at 22° C. to allow pre-binding of the test compounds to the enzyme before the start of the kinase reaction. Then the kinase reaction was started by the addition of 3 microL of a solution ATP (3.33 millimol/L=>final conc. in the 5 microL assay volume is 2 millimol/L) and substrate (1.67 micromol/L=>final conc. in the 5 microL assay volume is 1 micromol/L) in assay buffer and the resulting mixture was incubated for a reaction time of 60 min at 22° C. The concentration of CDK12/CycK was adjusted depending of the activity of the enzyme lot and was chosen appropriate to have the assay in the linear range, typical concentrations were about 0.75 nanomol/L. The reaction was stopped by the addition of 3 microL of a solution of TR-FRET detection reagents (125 nanomol/L streptavidine-XL665 [Cisbio Bioassays, Codolet, France] and 0.67 nanomol/L anti-Phospho-c-Myc (Ser 62) (E1J4K)-antibody from Cell Signalling [#13748] and 2 nanomol/L LANCE EU-W1024 labeled anti-rabbit IgG antibody [Perkin-Elmer, product no. 0083]) in an aqueous EDTA-solution (133 millimol/L EDTA, 0.27% (w/v) bovine serum albumin in 66.7 millimol/L HEPES pH 7.5).
The resulting mixture was incubated 1 h at 22° C. to allow the formation of complex between the phosphorylated biotinylated peptide and the detection reagents. Subsequently the amount of phosphorylated substrate was evaluated by measurement of the resonance energy transfer from the Eu-chelate to the streptavidine-XL. Therefore, the fluorescence emissions at 620 nm and 665 nm after excitation at 350 nm was measured in a TR-FRET reader, e.g. a Pherastar FS (BMG Labtechnologies, Offenburg, Germany) or a Viewlux (Perkin-Elmer). The ratio of the emissions at 665 nm and at […] was taken as the measure for the amount of phosphorylated substrate. The data were normalised (enzyme reaction without inhibitor=0% inhibition, all other assay components but no enzyme=100% inhibition).

Row | Compound | IC50 [1] | IC50 [2] | IC50 [3] | (IC50 CDK12 high ATP) to (Degradation DC50 CDK12) ratio [3]
1 | FC(F)(F)c1ccc(-c2nnc(CNc3nc(N4CCOCC4)nc4c(Br)cnn34)[nH]2)cc1 [Example 1, 8-bromo-2-(morpholin-4-yl)-N-({5-[4-(trifluoromethyl)phenyl]-4H-1,2,4-triazol-3-yl}methyl)pyrazolo[1,5-a][1,3,5]triazin-4-amine] | 0.58 µM | 0.514 µM | 1.83 µM | 0.77
2 | FC(F)(F)Oc1ccc(-c2nnc(CNc3nc(N4CCOCC4)nn4c(C(F)(F)F)cnc34)[nH]2)cn1 [Example 19, 2-(morpholin-4-yl)-N-({5-[6-(trifluoromethoxy)pyridin-3-yl]-4H-1,2,4-triazol-3-yl}methyl)-7-(trifluoromethyl)imidazo[2,1-f][1,2,4]triazin-4-amine] | 0.0632 µM | 0.0345 µM | 0.00414 µM | –
3 | FC(F)(F)c1ccc(-c2cnc(CNc3nc(N4CCOCC4)nc4c(C(F)(F)F)cnn34)[nH]2)cc1 [Example 9, 2-(morpholin-4-yl)-8-(trifluoromethyl)-N-({5-[4-(trifluoromethyl)phenyl]-1H-imidazol-2-yl}methyl)pyrazolo[1,5-a][1,3,5]triazin-4-amine] | 0.109 µM | 0.102 µM | 0.00921 µM | 9.69E−03
4 | Cc1ccc(-c2nnc(CNc3nc(N4CCOCC4)nn4c(C(F)(F)F)cnc34)[nH]2)cn1 [Example 23, N-{[5-(6-methylpyridin-3-yl)-4H-1,2,4-triazol-3-yl]methyl}-2-(morpholin-4-yl)-7-(trifluoromethyl)imidazo[2,1-f][1,2,4]triazin-4-amine] | 0.0993 µM | 0.102 µM | 0.16 µM | <0.16
5 | FC(F)(F)Oc1ccc(-c2cnc(CNc3nc(N4CCOCC4)nc4c(Br)cnn34)[nH]2)cc1 [Example 4, 8-bromo-2-(morpholin-4-yl)-N-({5-[4-(trifluoromethoxy)phenyl]-1H-imidazol-2-yl}methyl)pyrazolo[1,5-a][1,3,5]triazin-4-amine] | 0.103 µM | 0.00694 µM | 0.0348 µM | <0.03
6 | FC(F)(F)Oc1ccc(-c2nnc(CNc3nc(N4CCOCC4)nc4c(Br)cnn34)[nH]2)cc1 [Example 2, 8-bromo-2-(morpholin-4-yl)-N-({5-[4-(trifluoromethoxy)phenyl]-4H-1,2,4-triazol-3-yl}methyl)pyrazolo[1,5-a][1,3,5]triazin-4-amine] | 0.37 µM | 0.272 µM | 0.75 µM | <0.27
7 | FC(F)(F)c1ccc(-c2cnc(CNc3nc(N4CCOCC4)nn4c(C(F)(F)F)cnc34)[nH]2)cn1 [Example 12, 2-(morpholin-4-yl)-7-(trifluoromethyl)-N-({5-[6-(trifluoromethyl)pyridin-3-yl]-1H-imidazol-2-yl}methyl)imidazo[2,1-f][1,2,4]triazin-4-amine] | 0.0148 µM | 0.00757 µM | 0.00309 µM | <3.09E−3
8 | FC(F)(F)Oc1ccc(-c2cnc(CNc3nc(N4CCOCC4)nc4c(C(F)(F)F)cnn34)[nH]2)cc1 [Example 10, 2-(morpholin-4-yl)-N-({5-[4-(trifluoromethoxy)phenyl]-1H-imidazol-2-yl}methyl)-8-(trifluoromethyl)pyrazolo[1,5-a][1,3,5]triazin-4-amine] | 0.0698 µM | 0.0373 µM | 0.00759 µM | <7.59E−3
